From US10369113B2, “Prostate specific membrane antigen (PSMA) targeted nanoparticles for therapy of prostate cancer” (The Johns Hopkins University, priority 2007, dated 2019)

Test system: PSMA-expressing LNCaP human prostate cancer cells
Test: In vitro toxicity of nanoparticles (MTT assay after 15 min exposure)
Format: cell-based
Details: 48 hrs after 15 min exposure, 100 nM docetaxel equivalent, read-out: inhibition of cell growth
Protocol: The cytotoxicity of the nontargeted particles in that study was ascribed to a combination of nonspecific uptake and to the expected nonspecific release of docetaxel from the particle into the media over the exposure period. […] Following determination of the amount of docetaxel loading in the particles, PSMA-expressing LNCaP human prostate cancer cells were exposed to equimolar amounts (i.e. 100 nM) of loaded nanoparticles or free docetaxel. To minimize the effects of nonspecific endocytosis, cells were only exposed to test compounds for 15 min at which time cells were washed and then placed in drug free media. Cell counts were determined by converting absorbance from MTT assay to cell number based on a standard curve of absorbance from MTT assay of known amounts of LNCaP cells. In this assay, 48 hrs following exposure, the growth of cells exposed to the nontargeted nanoPEG particles was inhibited by 65% while cell growth was inhibited 89% by docetaxel and 95% by the nanoPSMAi2 particles. […]
Cytotoxicity assays were performed as described previously (Denmeade, S. R., et al. J Natl Cancer Inst, 95: 990-1000, 2003). […] Cells were then incubated in media at 37° C. and at the end of 48 hours and 96 hours, effects on cell growth were determined using the MTT assay (Promega, WI) according to manufacturer's instructions.

CC(=O)O[C@@]12CO[C@@H]1C[C@H](O)[C@@]1(C)C(=O)[C@H](O)C3=C(C)[C@@H](OC(=O)[C@H](O)[C@@H](NC(=O)OC(C)(C)C)c4ccccc4)C[C@@](O)([C@@H](OC(=O)c4ccccc4)[C@H]21)C3(C)C [docetaxel]
inhibition at 0.1 µM: 89%
